Measurements taken from US20090239877A1, “NOVEL 1,2,4-TRIAZOLE DERIVATIVES AND PROCESS OF MANUFACTURING THEREOF” (AETERNA ZENTARIS GmbH, priority 2008, published 2009).

Tests used:
[1] = target: T1, human GHS-R 1a (Homo sapiens, UniProt Q92847); test: In vitro intracellular calcium release assay using human GHS-R 1a transfected CHO cells; type: cell-based; design: expressed in transfected cells; host or cells: CHO-K1 Chinese hamster ovary cells (ATCC No. CCL-61), transient transfection by electroporation; conditions: antagonist dissociation constant, antagonist inhibition curves in the presence of 10^-7 M ghrelin, Cheng-Prusoff equation, Fluo-4 AM
[2] = target: T1, human GHS-R 1a; test: GHS-R 1a receptor-ligand binding assay (membrane preparations from transfected LLC PK-1 cells); design: expressed in transfected cells; conditions: displacement of 125I-His9-ghrelin; plasma membranes of LLC PK-1 cells transiently transfected with human GHS-R 1a; mean of at least two independent experiments in triplicates
Procedure, shortened: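 Membranes (10 μg protein) from LLC PK-1 cells transiently transfected with human GHS-R 1a cDNA were incubated 60 min at 25° C in 50 mM Tris pH 7.3 buffer with […] ^125I-His^9-ghrelin, with nonspecific binding defined by 10^−6 M ghrelin. Filter-bound radioactivity was gamma-counted, and IC50 was obtained by non-linear regression of competition curves.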

[3] = target: T1, human GHS-R 1a; test: In vitro intracellular calcium release assay using human GHS-R 1a transfected CHO cells; type: cell-based; design: expressed in transfected cells; host or cells: CHO-K1 Chinese hamster ovary cells (ATCC No. CCL-61), transient transfection by electroporation; conditions: intracellular calcium release, compound at 10^-6 M, relative to basal level (0%) and 1 μM ghrelin (100%)
Protocol: The ability to properly activate the receptors is assessed for any compound of the invention by comparing the degree of activation (increase of intracellular calcium) of GHS-R 1a by the compound to be tested (at 10^−6 M concentration) to the degree of activation (increase of intracellular calcium) of GHS-R 1a by 10^−6 M ghrelin (100%) and to the basal level (0%). Such assessment can be readily performed by the skilled artisan due to his expert knowledge. The output is a percentage value for each compound to be tested. […]
III) In Vitro Intracellular Calcium Release Assay Using Human GHS-R 1a Transfected CHO Cells
The potential of the compounds of the invention to modulate GHS receptor activity was assessed by an in vitro intracellular Calcium release assay employing CHO cells that were transfected with human GHS-R 1a.
Release of intracellular calcium or inhibition thereof was measured using the fluorescent calcium indicator assay (FLIPR) and Fluo-4 AM.
CHO cells (CHO-KI Chinese Hamster Ovary cell line, ATCC No. CCL-61) were transiently transfected with human GHS-R 1a cDNA by electroporation and plated into 96-well black bottom plates (Corning 3603) (80,000 cells/well). Transient transfections were performed using the Easyject Optima Electroporator (Equibio), according to the manufacturer's instructions.
Transfected cells were grown in Dulbecco's modified Eagle's medium without phenol red, supplemented with 10% (v/v) non-essential amino acids, […] glutamine and streptomycin-penicillin (250 μg/ml-250 u/ml) (all purchased from Cambrex) at 37° C., 5% CO2 in a humidified atmosphere for 24 hours.
After incubation, transfected cells were washed with 150 μl Buffer A [Hanks' balanced salt solution (Sigma H-6648), 0.5% (v/v) BSA (Sigma A-7906), 20 mM CaCl2, 2.5 mM probenecid (pH 7.4, dissolved in 1 M NaOH) (Sigma P-8761)] and were then loaded with fluorescent calcium indicator Fluo-4 AM (10^−6 M) (Interchim UP72972) prepared in Buffer A, additionally containing 0.06% pluronic acid (Molecular probes P-6867) (a […] detergent which facilitates Fluo-4AM ester loading). (Loading: 100 μl per well of Buffer A containing 120 μl/ml Pluronic Acid and 1 μM Fluo-4AM was added to the cells).
After loading with Fluo-4 AM, transfected cells were incubated for 1 hour in the dark at 37° C.
Compounds to be tested were dissolved in Buffer A in triplicates at a concentration of 10^−6 M and distributed into another 96-well plate (Fisher Labosi A1210500).
Following incubation, excess Fluo-4AM was removed, 100 μl of Buffer A was added to each well at room temperature and immediately removed by aspiration. This was then repeated, before adding 50 μl Buffer A to each well.
Transfected cells were further incubated room temperature for 30 min to allow complete de-esterification of intracellular Fluo-4AM esters.
Subsequently, both plates, the black-bottom plate containing transfected cells and the microtiter plate containing the compounds to be tested, were then placed into a temperature-regulated (25° C.) FlexStation machine (benchtop scanning fluorometer Flex Station II, Molecular Devices, Sunnyvale, Calif., USA) for fluorescence output measurements.
Basal fluorescence output from the transfected cells was measured for 15 sec and then 50 μl of the compounds to be tested were automatically distributed into the wells containing the transfected cells. The fluorescence output was then recorded for a further 45 sec.
Excitation and emission wavelengths were 485 nm and 525 nm, respectively. Basal fluorescence intensity of Fluo-4AM-loaded transfected cells without compounds to be tested varied between 800-1200 arbitrary units, whereas maximal fluorescence output of dye-loaded transfected cells upon incubation with the compounds to be tested varied between 5000-7000 arbitrary units and was equivalent to that achieved by stimulation of dye-loaded transfected cells with 10^−6 M ghrelin. […]

T1 sequence (Q92847 whole entry): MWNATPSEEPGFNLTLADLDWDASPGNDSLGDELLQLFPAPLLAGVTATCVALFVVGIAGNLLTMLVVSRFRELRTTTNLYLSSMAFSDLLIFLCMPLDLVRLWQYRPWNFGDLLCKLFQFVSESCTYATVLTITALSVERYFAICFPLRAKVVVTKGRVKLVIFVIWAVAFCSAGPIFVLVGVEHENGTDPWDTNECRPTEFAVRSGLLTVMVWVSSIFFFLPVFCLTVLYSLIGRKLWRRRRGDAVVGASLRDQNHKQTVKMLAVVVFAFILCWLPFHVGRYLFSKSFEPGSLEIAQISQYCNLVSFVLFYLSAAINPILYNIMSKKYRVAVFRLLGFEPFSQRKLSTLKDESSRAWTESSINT

Structure (SMILES) | Kb [1] [nM] | IC50 [2] [nM] | activation at 1 µM [3] [%]
O=C(N[C@H](Cc1c[nH]c2ccccc12)c1nnc(CCc2ccccc2)n1Cc1cccc2ccccc12)C1CCOCC1 [Compound 19, N-((R)-2-(1H-indol-3-yl)-1-(4-((naphthalen-1-yl)methyl)-5-phenethyl-4H-1,2,4-triazol-3-yl)ethyl)-tetrahydro-2H-pyran-4-carboxamide] | 275 | 390 | 0
O=C(N[C@H](Cc1c[nH]c2ccccc12)c1nnc(CCCc2c[nH]c3ccccc23)n1Cc1ccccc1)c1ccccn1 [Compound 21, N-((R)-1-(5-(3-(1H-indol-3-yl)propyl)-4-benzyl-4H-1,2,4-triazol-3-yl)-2-(1H-indol-3-yl)ethyl)picolinamide] | 300 | 80 | 0
O=C(N[C@H](Cc1c[nH]c2ccccc12)c1nnc(Cc2ccccc2)n1Cc1ccc(Cl)c(Cl)c1)C1CCOCC1 [Compound 37, N-((R)-1-(4-(3,4-dichlorobenzyl)-5-benzyl-4H-1,2,4-triazol-3-yl)-2-(1H-indol-3-yl)ethyl)-tetrahydro-2H-pyran-4-carboxamide] | 215 | 200 | 0
O=C(Cc1ccccn1)N[C@H](Cc1c[nH]c2ccccc12)c1nnc(Cc2ccccc2)n1Cc1ccc(Cl)c(Cl)c1 [Compound 34, N-((R)-1-(4-(3,4-dichlorobenzyl)-5-benzyl-4H-1,2,4-triazol-3-yl)-2-(1H-indol-3-yl)ethyl)-2-(pyridin-2-yl)acetamide] | 340 | 110 | 0
O=C(N[C@H](Cc1c[nH]c2ccccc12)c1nnc(CCCc2c[nH]c3ccccc23)n1Cc1ccccc1)C1CCOCC1 [Compound 23, N-((R)-1-(5-(3-(1H-indol-3-yl)propyl)-4-benzyl-4H-1,2,4-triazol-3-yl)-2-(1H-indol-3-yl)ethyl)-tetrahydro-2H-pyran-4-carboxamide] | 50 | 370 | 15
COc1ccc(Cn2c(CCc3ccccc3)nnc2[C@@H](Cc2c[nH]c3ccccc23)NC(=O)c2ccn[nH]2)c(OC)c1 [Compound 8, N-((R)-1-(4-(2,4-dimethoxybenzyl)-5-phenethyl-4H-1,2,4-triazol-3-yl)-2-(1H-indol-3-yl)ethyl)-1H-pyrazole-5-carboxamide] | 64 | 350 | 0
COc1ccc(Cn2c(CCc3c[nH]c4ccccc34)nnc2[C@@H](Cc2c[nH]c3ccccc23)NC(=O)c2ccn[nH]2)cc1 [Compound 14, N-((R)-1-(5-(2-(1H-indol-3-yl)ethyl)-4-(4-methoxybenzyl)-4H-1,2,4-triazol-3-yl)-2-(1H-indol-3-yl)ethyl)-1H-pyrazole-5-carboxamide] | 12.8 | 89.8 | 15

The next compounds have a lower IC50 [2] than those just listed; values first:

Kb [1] [nM] | IC50 [2] [nM] | activation at 1 µM [3] [%] | Structure (SMILES)
215 | 70 | 20 | O=C(N[C@H](Cc1c[nH]c2ccccc12)c1nnc(Cc2ccccc2)n1Cc1ccc(Cl)c(Cl)c1)c1ccccn1 [Compound 36, N-((R)-1-(4-(3,4-dichlorobenzyl)-5-benzyl-4H-1,2,4-triazol-3-yl)-2-(1H-indol-3-yl)ethyl)picolinamide]
68 | 15.8 | 3 | COc1ccc(Cn2c(CCc3ccccc3)nnc2[C@@H](Cc2c[nH]c3ccccc23)NC(=O)C2CCOCC2)c(OC)c1 [Compound 12, N-((R)-1-(4-(2,4-dimethoxybenzyl)-5-phenethyl-4H-1,2,4-triazol-3-yl)-2-(1H-indol-3-yl)ethyl)-tetrahydro-2H-pyran-4-carboxamide]
40 | 12 | 0 | COc1ccc(Cn2c(CCc3cc4ccccc4[nH]3)nnc2[C@@H](Cc2c[nH]c3ccccc23)NC(=O)C2CCOCC2)c(OC)c1 [Compound 11, N-((R)-1-(5-(2-(1H-indol-2-yl)ethyl)-4-(2,4-dimethoxybenzyl)-4H-1,2,4-triazol-3-yl)-2-(1H-indol-3-yl)ethyl)-tetrahydro-2H-pyran-4-carboxamide]
